The text below walks through data of ChEMBL document CHEMBL1136372, “Antibacterial activity of quinolone-macrocycle conjugates” (2003).

Each structure is given as a SMILES string. Converted amounts (≈) assume the structure as drawn. A value given as a limit tells only on which side of the number the result lay.

One assay has as its system Escherichia coli. Nature of the assay: Minimum inhibitory concentration against Escherichia coli ATCC 25922. The format is functional.
Another assay deals with Staphylococcus aureus. Nature of the assay: Minimum inhibitory concentration (MIC) against Staphylococcus aureus ATCC 13709. It counts as functional.

For the molecule `CCn1cc(C(=O)Nc2ccc3c(c2)C(=O)NCCC(=O)N[C@H](CCN)C(=O)N[C@@H](Cc2ccc(O)cc2)CO3)c(=O)c2ccc(C)nc21`, the MIC against Escherichia coli is 50 µM (≈ 33.5 µg/mL); with Staphylococcus aureus, over 100 µM.

Turning to `CCN1CC(C(=O)Nc2ccc3c(c2)C(=O)NCCC(=O)N[C@@H](CCN)C(=O)N[C@H](Cc2ccc(O)cc2)CO3)C(=O)c2ccc(C)nc21` (some centres not stated), the values for the MIC in the assay on Escherichia coli and against Staphylococcus aureus were 50 µM (≈ 33.6 µg/mL) and over 100 µM, respectively.

Regarding `CC1COc2c(N3CCN(C)CC3)c(F)cc3c2N1CC(C(=O)Nc1ccc2c(c1)C(=O)NCCC(=O)N[C@@H](CCN)C(=O)N[C@H](Cc1ccc(O)cc1)CO2)C3=O` (some centres not stated), the figures for the MIC in the assay on Escherichia coli and with Staphylococcus aureus were 3 µM (≈ 2.4 µg/mL) and 13 µM (≈ 10.4 µg/mL), respectively.

With `CCn1cc(C(=O)Nc2ccc3c(c2)C(=O)NCCC(=O)N[C@H](CCN)C(=O)N[C@H](Cc2ccc(O)cc2)CO3)c(=O)c2ccc(C)nc21`, the minimal inhibitory concentration (MIC) with Escherichia coli was 50 µM (≈ 33.5 µg/mL); against Staphylococcus aureus it was over 100 µM.

`CN1CCN(c2cc3c(cc2F)C(=O)C(C(=O)Nc2ccc4c(c2)C(=O)NCCC(=O)N[C@@H](CCN)C(=O)N[C@H](Cc2ccc(O)cc2)CO4)CN3C2CC2)CC1` (some centres not stated): the MIC worked out at 0.2 µM (≈ 0.157 µg/mL) in the assay on Escherichia coli and 1.6 µM (≈ 1.26 µg/mL) against Staphylococcus aureus.

On to `NCC[C@@H]1NC(=O)CCNC(=O)c2cc(NC(=O)c3cnc4ccccc4c3)ccc2OC[C@@H](Cc2ccc(O)cc2)NC1=O`, for which the minimum inhibitory concentration (MIC) against Escherichia coli and with Staphylococcus aureus was over 100 µM each time.

Take `CCn1cc(C(=O)Nc2ccc3c(c2)C(=O)NCCC(=O)N[C@@H](CCN)C(=O)N[C@@H](Cc2ccccc2)CO3)c(=O)c2ccc(C)nc21`: the MIC is 50 µM (≈ 32.7 µg/mL) with Escherichia coli and over 100 µM with Staphylococcus aureus.

In the case of `CCn1cc(C(=O)Nc2ccc3c(c2)C(=O)NCCC(=O)N[C@H](CCN)C(=O)N[C@H](Cc2ccccc2)CO3)c(=O)c2ccc(C)nc21`, the MIC was 50 µM (≈ 32.7 µg/mL) in the assay on Escherichia coli and over 100 µM with Staphylococcus aureus.

Take `NCC[C@@H]1NC(=O)CCNC(=O)c2cc(NC(=O)c3cnccn3)ccc2OC[C@@H](Cc2ccc(O)cc2)NC1=O`: the MIC against Escherichia coli and against Staphylococcus aureus was over 100 µM each time.

Regarding `CC1COc2c(N3CCN(C)CC3)c(F)cc3c2N1CC(C(=O)N(C)CC(=O)Nc1ccc2c(c1)C(=O)NCCC(=O)N[C@@H](CCN)C(=O)N[C@H](Cc1ccc(O)cc1)CO2)C3=O` (some centres not stated), the values for the minimal inhibitory concentration (MIC) in the assay with Escherichia coli and against Staphylococcus aureus were 6 µM (≈ 5.23 µg/mL) and 50 µM (≈ 43.6 µg/mL), respectively.

Consider `NCC[C@@H]1NC(=O)CCNC(=O)c2cc(NC(=O)Cn3cnc4c(N)ncnc43)ccc2OC[C@@H](Cc2ccc(O)cc2)NC1=O`, for which the MIC in the assay on Escherichia coli and with Staphylococcus aureus was over 100 µM throughout.

On to `CC1COc2c(N3CCN(C)CC3)c(F)cc3c2N1CC(C(=O)NCCC(=O)Nc1ccc2c(c1)C(=O)NCCC(=O)N[C@@H](CCN)C(=O)N[C@H](Cc1ccc(O)cc1)CO2)C3=O` (some centres not stated), for which the MIC worked out at 3 µM (≈ 2.62 µg/mL) in the assay with Escherichia coli and 13 µM (≈ 11.3 µg/mL) in the assay with Staphylococcus aureus.

`CC1COc2c(N3CCN(C)CC3)c(F)cc3c2N1CC(C(=O)NCCCC(=O)Nc1ccc2c(c1)C(=O)NCCC(=O)N[C@@H](CCN)C(=O)N[C@H](Cc1ccc(O)cc1)CO2)C3=O` (some centres not stated): the minimal inhibitory concentration (MIC) was found to be 3 µM (≈ 2.66 µg/mL) in the assay with Escherichia coli and 25 µM (≈ 22.1 µg/mL) against Staphylococcus aureus.

For the molecule `CCn1cc(C(=O)Nc2ccc3c(c2)C(=O)NCCC(=O)N[C@@H](CCN)C(=O)N[C@@H](Cc2ccc(O)cc2)CO3)c(=O)c2ccc(C)nc21`, the minimal inhibitory concentration (MIC) is 50 µM (≈ 33.5 µg/mL) in the assay with Escherichia coli and over 100 µM with Staphylococcus aureus.

`NCC[C@@H]1NC(=O)CCNC(=O)c2cc(NC(=O)Cn3cnc4c(O)nc(N)nc43)ccc2OC[C@@H](Cc2ccc(O)cc2)NC1=O`: the MIC against Escherichia coli and in the assay on Staphylococcus aureus was over 100 µM throughout.

For `CCn1cc(C(=O)Nc2ccc3c(c2)C(=O)NCCC(=O)N[C@H](CCN)C(=O)N[C@@H](Cc2ccccc2)CO3)c(=O)c2ccc(C)nc21`, the results for the MIC with Escherichia coli and in the assay on Staphylococcus aureus were 50 µM (≈ 32.7 µg/mL) and over 100 µM, respectively.

As to `CC1COc2c(N3CCN(C)CC3)c(F)cc3c2N1CC(C(=O)NCC(=O)Nc1ccc2c(c1)C(=O)NCCC(=O)N[C@@H](CCN)C(=O)N[C@H](Cc1ccc(O)cc1)CO2)C3=O` (some centres not stated), the MIC with Escherichia coli turned out to be 3 µM (≈ 2.57 µg/mL); with Staphylococcus aureus, 50 µM (≈ 42.9 µg/mL).

Turning to `CC1COc2c(N3CCN(C)CC3)c(F)cc3c2N1CC(C(=O)NCCCCC(=O)Nc1ccc2c(c1)C(=O)NCCC(=O)N[C@@H](CCN)C(=O)N[C@H](Cc1ccc(O)cc1)CO2)C3=O` (some centres not stated), the MIC with Escherichia coli was determined as 3 µM (≈ 2.7 µg/mL); against Staphylococcus aureus, 25 µM (≈ 22.5 µg/mL).

As for `CCN1CC(CNc2ccc3c(c2)C(=O)NCCC(=O)N[C@@H](CCN)C(=O)N[C@H](Cc2ccc(O)cc2)CO3)C(=O)c2ccc(C)nc21` (some centres not stated), the MIC with Escherichia coli and against Staphylococcus aureus was over 100 µM each time.

As for `NCC[C@@H]1NC(=O)CCNC(=O)c2cc(NC(=O)c3ccc4ccccc4c3)ccc2OC[C@@H](Cc2ccc(O)cc2)NC1=O`, the minimum inhibitory concentration (MIC) against Escherichia coli and with Staphylococcus aureus was over 100 µM each time.

`CCn1cc(C(=O)Nc2ccc3c(c2)C(=O)NCCC(=O)N[C@@H](CCN)C(=O)N[C@H](Cc2ccccc2)CO3)c(=O)c2ccc(C)nc21`: the results for the MIC against Escherichia coli and in the assay on Staphylococcus aureus were 50 µM (≈ 32.7 µg/mL) and over 100 µM, respectively.

Regarding `CCn1cc(C(=O)Nc2ccc3c(c2)C(=O)NCCC(=O)N[C@@H](CCN)C(=O)N[C@H](Cc2ccc(O)cc2)CO3)c(=O)c2ccc(C)nc21`, the minimal inhibitory concentration (MIC) is 50 µM (≈ 33.5 µg/mL) against Escherichia coli and over 100 µM against Staphylococcus aureus.

In the case of `CC1COc2c(N3CCN(C)CC3)c(F)cc3c2N1CC(C(=O)NCCCCCC(=O)Nc1ccc2c(c1)C(=O)NCCC(=O)N[C@@H](CCN)C(=O)N[C@H](Cc1ccc(O)cc1)CO2)C3=O` (some centres not stated), the MIC in the assay with Escherichia coli was found to be 3 µM (≈ 2.74 µg/mL); against Staphylococcus aureus, 25 µM (≈ 22.9 µg/mL).

With `O=C(O)c1cn(C2CC2)c2cc(N3CCNCC3)c(F)cc2c1=O` [CIPROFLOXACIN], the MIC against Escherichia coli is 0.08 µM (≈ 0.0265 µg/mL); in the assay on Staphylococcus aureus it was 0.6 µM (≈ 0.199 µg/mL).

For the molecule `CCn1cc(C(=O)O)c(=O)c2ccc(C)nc21` [NALIDIXIC ACID], the minimal inhibitory concentration (MIC) came out at 3 µM (≈ 0.697 µg/mL) against Escherichia coli and 75 µM (≈ 17.4 µg/mL) with Staphylococcus aureus.

With `CC1COc2c(N3CCN(C)CC3)c(F)cc3c(=O)c(C(=O)O)cn1c23` (configuration not stated) [OFLOXACIN], the MIC in the assay on Escherichia coli stood at 0.78 µM (≈ 0.282 µg/mL); in the assay on Staphylococcus aureus it was 25 µM (≈ 9.03 µg/mL).
